From patent US8871796B2, “Diaryl ether derivatives as notch sparing gamma secretase inhibitors” (Merck Sharp & Dohme Corp., priority 2009, dated 2014) come the findings set out here.

pIC50: −log10 of the molar value. Read-outs that look alike come from different tables or passages of the source. A value given as a limit tells only on which side of the number the result lay.

The assay is described as follows: APP processing: AlphaLisa assay of secreted Aβ40 and Aβ42 from SP4CT cells. The format is cell-based. The conditions noted are these: Homo sapiens, SH-SY5Y cells expressing amyloid β protein (SP4CT cells). The protocol: APP Processing (Assay Quantitates Secreted Aβ Analytes from Cell Lines):
The effect of compounds on the abundance of Aβ40 and Aβ42 peptides generated from SH-SY5Y cells expressing amyloid β protein (SP4CT cells) are determined by an AlphaLisa™ assay. Analogous to an ELISA assay, generation of […] AlphaLisa™ assay requires “donor” and “acceptor” beads to be brought in close proximity by specific antibody recognition of either Aβ40 or Aβ42 peptides. The assay is accomplished by removing media from compound-treated SP4CT cells to two different microplates, followed by the addition of donor beads conjugated with streptavidin binding a biotinylated anti-amyloid β monocolonal antibody (clone 4G8). Acceptor beads directly conjugated with anti-Aβ40 monoclonal antibody (G210) are added to one microplate and anti-Aβ42 monoclonal antibody (12F4) acceptor beads were added to the other. Abundance of Aβ40 and Aβ42 is directly proportional to the luminescent signal generated following excitation of donor beads by laser light.

The mark [1] stands for this setting: read-out: IC50, inhibition of production of Aβ40 peptide.
Where [2] appears, read: read-out: IC50, inhibition of production of Aβ42 peptide.

In the case of `CCCNS(=O)(=O)NC1(c2cccc(-c3cc(Oc4ccc(C(F)(F)F)cc4)nn3CC)c2)CC1` [Example 33, N-[1-(3-{1-ethyl-3-[4-(trifluoromethyl)phenoxy]-1H-pyrazol-5-yl}phenyl)cyclopropyl]-N′-propylsulfamide], the pIC50 is greater than 6.70 under setting [1] and greater than 6.70 under setting [2].

Regarding `CCn1nc(-c2cccc(C(C)(C)NS(=O)(=O)CC(F)(F)F)c2)cc1Oc1ccc(C(F)C(F)(F)F)cc1` (stereo not shown) [Example 72, N-[1-(3-{1-ethyl-5-[4-(1,2,2,2-tetrafluoroethyl)phenoxy]-1H-pyrazol-3-yl}phenyl)-1-methylethyl]-2,2,2-trifluoroethanesulfonamide], the pIC50 is, setting by setting: under setting [1], greater than 6.70; under setting [2], greater than 6.70.

As to `CCn1nc(-c2cccc(C3(NS(=O)(=O)CC(F)(F)F)CC3)c2)cc1Oc1ncc(F)cn1` [Example 49, N-[1-(3-{1-ethyl-5-[(5-fluoropyrimidin-2-yl)oxy]-1H-pyrazol-3-yl}phenyl)cyclopropyl]-2,2,2-trifluoroethanesulfonamide], the pIC50 reads like this: under setting [1], greater than 6.70; under setting [2], greater than 6.70.

`CCn1nc(Oc2ccc(C(F)(F)F)cc2)cc1-c1cccc(C2(NS(=O)(=O)NCC(C)C)CC2)c1` [Example 30, N-[1-(3-{1-ethyl-3-[4-(trifluoromethyl)phenoxy]-1H-pyrazo1-5-yl}phenyl)cyclopropyl]-N′-isobutylsulfamide]: the pIC50 under setting [1] was greater than 6.70 and the pIC50 under setting [2] was greater than 6.70.

Regarding `CCn1nc(Oc2ccc(C(F)(F)F)cc2)cc1-c1cccc(C2(NS(=O)(=O)NCC3CCC3)COC2)c1` [Example 103], the pIC50 is, setting by setting: under setting [1], greater than 6.70; under setting [2], greater than 6.70.

Take `CNC(=O)Cn1nc(-c2cccc(C3(NS(=O)(=O)CC(F)(F)F)COC3)c2)cc1Oc1ccc(C(F)(F)F)cc1` [Example 132, 2-[5-(4-trifluoromethylphenoxy)-3-(3-{3-[(2,2,2-trifluoroethylsulfonyl)amino]oxetan-3-yl}phenyl)-1H-pyrazol-1-yl]-N-methylacetamide]: the pIC50 is greater than 6.70 under setting [1] and greater than 6.70 under setting [2].

As to `CCn1nc(-c2cccc(C(C)(C)NS(=O)(=O)CC(F)(F)F)c2)cc1Oc1ccc(C#N)cc1` [Example 108, N-(1-{3-[5-(4-cyanophenoxy)-1-ethyl-1H-pyrazol-3-yl]phenyl}-1-methylethyl)-2,2,2-trifluoroethanesulfonamide], the pIC50 by setting is: under setting [1], greater than 6.70; under setting [2], greater than 6.70.

Take `CCn1nc(Oc2ccc(C(F)(F)F)cn2)cc1-c1ccc2c(c1)CC(NS(=O)(=O)NCC(F)(F)F)C2` (stereo not shown) [Example 122, N-[5-(1-ethyl-3-{[5-(trifluoromethyl)pyridin-2-yl]oxy}-1H-pyrazol-5-yl)-2,3-dihydro-1H-inden-2-yl]-N′-(2,2,2-trifluoroethyl)sulfamide]: the pIC50 under setting [1] was greater than 6.70 and the pIC50 under setting [2] was greater than 6.70.

As for `COCCCn1nc(-c2cccc(C3(NS(=O)(=O)CC(F)(F)F)COC3)c2)cc1Oc1ccc(C(F)(F)F)cc1` [Example 142], the pIC50 reads like this: under setting [1], greater than 6.70; under setting [2], greater than 6.70.

As to `CCn1nc(-c2cccc(C3(NS(=O)(=O)NCC(F)(F)F)CC3)c2)cc1Oc1ccc(C(F)(F)F)cn1` [Example 41, N-{1-[3-(1-ethyl-5-{[5-(trifluoromethyl)pyridin-2-yl]oxy}-1H-pyrazol-3-yl)phenyl]cyclopropyl}-N′-(2,2,2-trifluoroethyl)sulfamide], the pIC50 reads like this: under setting [1], greater than 6.70; under setting [2], greater than 6.70.

Turning to `CCn1nc(-c2cccc(C(C)(C)NS(=O)(=O)CC(F)(F)F)c2)cc1Oc1ccc(C(O)C(C)C)cc1` (stereo not shown) [Example 66, N-[1-(3-{1-ethyl-5-[4-(1-hydroxy-2-methylpropyl)phenoxy]-1H-pyrazol-3-yl}phenyl)-1-methylethyl]-2,2,2-trifluoroethanesulfonamide], the pIC50 is greater than 6.70 under setting [1] and greater than 6.70 under setting [2].

As to `CCn1nc(-c2cccc(C3(NS(=O)(=O)NC4CCC4)CC3)c2)cc1Oc1ccc(C(F)(F)F)cn1` [Example 43, N-cyclobutyl-N′-{1-[3-(1-ethyl-5-{[5-(trifluoromethyl)pyridin-2-yl]oxy}-1H-pyrazol-3-yl)phenyl]cyclopropyl} sulfamide], the pIC50 by setting is: under setting [1], greater than 6.70; under setting [2], greater than 6.70.

With `CCn1nc(-c2cccc(C(C)(C)NS(=O)(=O)CC(F)(F)F)c2)cc1Oc1ccc(-c2nnc(C)o2)cc1` [Example 75, N-[1-(3-{1-ethyl-5-[4-(5-methyl-1,3,4-oxadiazol-2-yl)phenoxy]-1H-pyrazol-3-yl}phenyl)-1-methylethyl]-2,2,2-trifluoroethanesulfonamide], the pIC50 was greater than 6.70 under setting [1] and greater than 6.70 under setting [2].

Consider `CCn1nc(-c2cccc(C(C)(C)NS(=O)(=O)CC(F)(F)F)c2)c(C=O)c1Oc1ccc(C(F)(F)F)cc1` [Example 118, N-[2-(3-{1-ethyl-4-formyl-5-[4-(trifluoromethyl)phenoxy]-1H-pyrazol-3-yl}phenyl)propan-2-yl]-2,2,2-trifluoroethanesulfonamide], for which the pIC50 runs as follows: under setting [1], greater than 6.70; under setting [2], greater than 6.70.

As for `CCn1nc(Oc2ccc(C(F)(F)F)cc2)cc1-c1cccc(C2(NS(=O)(=O)NC3CCCC3)CC2)c1` [Example 29, N-cyclopentyl-N′-[1-(3-{1-ethyl-3-[4-(trifluoromethyl)phenoxy]-1H-pyrazol-5-yl}phenyl)cyclopropyl] sulfamide], the pIC50 is, setting by setting: under setting [1], greater than 6.70; under setting [2], greater than 6.70.

`CCn1nc(Oc2ccc(C(F)(F)F)cc2)cc1-c1cccc(C2(NS(=O)(=O)NCC(F)(F)F)COC2)c1` [Example 101, N-[3-(3-{1-ethyl-3-[4-(trifluoromethyl)phenoxy]-1H-pyrazol-5-yl}phenyl)oxetan-3-yl]-N′-(2,2,2-trifluoroethyl)sulfamide]: the pIC50 under setting [1] is greater than 6.70 and the pIC50 under setting [2] was greater than 6.70.

As for `CCn1nc(Oc2ccc(F)cc2)cc1-c1cccc(C(C)(C)NS(=O)(=O)NCC(F)(F)F)c1` [Example 55, N-(1-{3-[1-ethyl-3-(4-fluorophenoxy)-1H-pyrazol-5-yl]phenyl}-1-methylethyl)-N'-(2,2,2-trifluoroethyl)sulfamide], the pIC50 runs as follows: under setting [1], greater than 6.70; under setting [2], greater than 6.70.

Consider `O=C(Cn1nc(-c2cccc(C3(NS(=O)(=O)CC(F)(F)F)COC3)c2)cc1Oc1ccc(C(F)(F)F)cc1)N1CCOCC1` [Example 133, N-[3-(3-{5-(4-trifluoromethylphenoxy)-1-[2-oxo-2-(morpholin-4-yl)ethyl]-1H-pyrazol-3-yl}phenyl)oxetan-3-yl]- ,2,2,2-trifluoroethanesulfonamide], for which the pIC50 under setting [1] is greater than 6.70 and the pIC50 under setting [2] was greater than 6.70.

As for `CCn1nc(-c2cccc(C(C)(C)NS(=O)(=O)CC(F)(F)F)c2)cc1Oc1ccccc1F` [Example 7, N-(1-{3-[1-ethyl-5-(2-fluorophenoxy)-1H-pyrazol-3-yl]phenyl}-1-methylethyl)-2,2,2-trifluoroethanesulfonamide], the pIC50 was greater than 6.70 under setting [1] and greater than 6.70 under setting [2].

As to `CCn1nc(Oc2ccc(C(F)(F)F)cc2)cc1-c1ccc2c(c1)CC(NS(=O)(=O)NCC(F)(F)F)C2` (stereo not shown) [Example 120, (N-[5-(1-Ethyl-3-(4-trifluoromethylphenoxy)-1H-pyrazol-5-yl)-2,3-dihydro-1H-inden-2-yl]-N′-(2,2,2-trifluoroethyl)sulfuric diamide)], the pIC50 was greater than 6.70 under setting [1] and greater than 6.70 under setting [2].

`CCn1nc(Oc2ccc(F)cc2)cc1-c1cccc(C(C)(C)NS(=O)(=O)NC2CCC2)c1` [Example 54, N-cyclobutyl-N′-(1-{3-[1-ethyl-3-(4-fluorophenoxy)-1H-pyrazol-5-yl]phenyl}-1-methylethyl)sulfamide]: the pIC50 under setting [1] was greater than 6.70 and the pIC50 under setting [2] was greater than 6.70.

`CCn1nc(-c2cccc(C(C)(C)NS(=O)(=O)CC3CCC3)c2)cc1Oc1ccc(C(F)(F)F)cc1` [Example 2, 1-cyclobutyl-N-[1-(3-{1-ethyl-5-[4-(trifluoromethyl)phenoxy]-1H-pyrazol-3-yl}phenyl)-1-methylethyl]methanesulfonamide]: the pIC50 by setting is: under setting [1], greater than 6.70; under setting [2], greater than 6.70.

For `CCn1nc(-c2cccc(C3(NS(=O)(=O)CC4CCC4)CC3)c2)cc1Oc1ccc(C(F)(F)F)cc1` [Example 37, 1-cyclobutyl-N-[1-(3-{1-ethyl-5-[4-(trifluoromethyl)phenoxy]-1H-pyrazol-3-yl}phenyl)cyclopropyl] methanesulfonamide], the pIC50 under setting [1] is greater than 6.70 and the pIC50 under setting [2] is greater than 6.70.

In the case of `CCn1nc(-c2cccc(C(C)(C)NS(=O)(=O)CC(F)(F)F)c2)cc1Oc1ccc(C(F)F)cc1` [Example 64, N-[1-(3-{5-[4-(difluoromethyl)phenoxy]-1-ethyl-1H-pyrazol-3-yl}phenyl)-1-methylethyl]-2,2,2-trifluoroethanesulfonamide], the pIC50 by setting is: under setting [1], greater than 6.70; under setting [2], greater than 6.70.

For the molecule `CCn1nc(-c2cncc(C3(NS(=O)(=O)CC(F)(F)F)COC3)c2)cc1Oc1ccc(C(F)(F)F)cc1` [Example 126, N-[3-(5-{1-ethyl-5-[4-(trifluoromethyl)phenoxy]-1H-pyrazol-3-yl}pyridine-3-yl)oxetan-3-yl]-2,2,2-trifluoroethanesulfonamide], the pIC50 runs as follows: under setting [1], greater than 6.70; under setting [2], greater than 6.70.

`CCn1nc(-c2cccc(C3(NS(=O)(=O)NC)COC3)c2)cc1Oc1ccc(C(F)(F)F)cc1` [Example 97, N-[3-(3-{1-ethyl-5-[4-(trifluoromethyl)phenoxy]-1H-pyrazol-3-yl}phenyl)oxetan-3-yl]-N′-methylsulfamide]: the pIC50 is, setting by setting: under setting [1], greater than 6.70; under setting [2], greater than 6.70.
